Consider 26 compounds from patent US10329291B2, “C5-C6-carbocyclic fused iminothiadiazine dioxides as BACE inhibitors, compositions, and their use” (Merck Sharp & Dohme Corp., priority 2015, dated 2019).

Sequence of soluble human BACE-1 catalytic domain (P56817 75-416): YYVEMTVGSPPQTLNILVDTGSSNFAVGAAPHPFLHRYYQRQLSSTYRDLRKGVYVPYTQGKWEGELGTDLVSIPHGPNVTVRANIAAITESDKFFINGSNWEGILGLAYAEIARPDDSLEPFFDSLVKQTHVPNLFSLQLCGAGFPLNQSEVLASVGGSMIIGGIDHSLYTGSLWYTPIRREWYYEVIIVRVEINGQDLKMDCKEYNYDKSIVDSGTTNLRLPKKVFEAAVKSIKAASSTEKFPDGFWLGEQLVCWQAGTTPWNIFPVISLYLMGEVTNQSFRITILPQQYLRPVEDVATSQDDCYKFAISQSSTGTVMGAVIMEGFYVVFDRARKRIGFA

One experiment concerns the target soluble human BACE-1 catalytic domain (Homo sapiens (Human), UniProt P56817). Put plainly: BACE-1 Ki Assay (BACE-1 HTRF FRET Assay). It is filed as biochemical. Particulars: Ki calculated from IC50 using the Cheng-Prusoff equation; QSY7-APPswe-Eu substrate, pH 5.0; read-out: BACE1 Ki. The text has this: The following reagents were used in this assay. Na^+-Acetate pH 5.0; 1% Brij-35; Glycerol; Dimethyl Sulfoxide (DMSO); Recombinant human soluble BACE-1 catalytic domain (>95% pure); APP Swedish mutant peptide substrate (QSY7-APP^swe-Eu): QSY7-[…]-Europium-amide.
A homogeneous time-resolved FRET assay can be used to determine IC50 values for inhibitors of the soluble human BACE-1 catalytic domain. This assay monitors the increase of 620 nm fluorescence that resulted from BACE-1 cleavage of an APPswedish APP^swe mutant peptide FRET substrate (QSY7-[…]-Europium-amide). This substrate contains an N-terminal QSY7 moiety that serves as a quencher of the C-terminal Europium fluorophore (620 nm Em). In the absence of enzyme activity, 620 nm fluorescence is low in the assay and increased linearly over 3 hours in the presence of uninhibited BACE-1 enzyme. Inhibition of BACE-1 cleavage of the QSY7-APP^swe-Eu substrate by inhibitors is manifested as a suppression of 620 nm fluorescence.
Reactions are initiated by addition of 10 μl of 600 nM QSY7-APP^swe-Eu substrate (200 nM final) to give a final reaction volume of 30 μl in a 384 well Nunc HTRF plate. The reactions are incubated at 30° C. for 1.5 hours. […] Inhibitor IC50 values are derived from non-linear regression analysis of concentration response curves. Ki values are then calculated from IC50 values using the Cheng-Prusoff equation using a previously determined […] of 8 μM for the QSY7-APP^swe-Eu substrate at BACE-1. The example compounds of the invention were measured in this assay.
Turning to `CN1C(=N)N[C@@]2(c3cc(NC(=O)c4ccc(F)cn4)ccc3F)CCC[C@H]2S1(=O)=O` [Example 1], the Ki is 10 nM. As to `CN1C(=N)N[C@@]2(c3cc(NC(=O)c4cnc(OCCF)cn4)ccc3F)CCC[C@H]2S1(=O)=O` [Example 2, N-(4-fluoro-3-((4aR,7aR)-3-imino-2-methyl-1,1-dioxidohexahydrocyclopenta[e][1,2,4]thiadiazin-4a(2H)-yl)phenyl)-5-(2-fluoroethoxy)pyrazine-2-carboxamide], the Ki is 18 nM. Regarding `CN1C(=N)N[C@@]2(c3cc(NC(=O)c4ccc(OC(F)F)cn4)ccc3F)CCC[C@H]2S1(=O)=O` [Example 3, 5-(difluoromethoxy)-N-(4-fluoro-3-((4aR,7aR)-3-imino-2-methyl-1,1-dioxidohexahydrocyclopenta[e][1,2,4]thiadiazin-4a(2H)-yl)phenyl)picolinamide], the Ki was 4 nM. Regarding `CN1C(=N)N[C@@]2(c3cc(NC(=O)c4ccc(Cl)cn4)ccc3F)CCC[C@H]2S1(=O)=O` [Example 4, 5-chloro-N-(4-fluoro-3-((4aR,7aR)-3-imino-2-methyl-1,1-dioxidohexahydrocyclopenta[e][1,2,4]thiadiazin-4a(2H)-yl)phenyl)picolinamide], the Ki was 3 nM.

`CN1C(=N)N[C@@]2(c3cc(NC(=O)c4ccc(C#N)cn4)ccc3F)CCC[C@H]2S1(=O)=O` [Example 5, 5-cyano-N-(4-fluoro-3-((4aR,7aR)-3-imino-2-methyl-1,1-dioxidohexahydrocyclopenta[e][1,2,4]thiadiazin-4a(2H)-yl)phenyl)picolinamide]: the Ki is 4 nM. In the case of `Cc1cnc(C(=O)Nc2ccc(F)c([C@]34CCC[C@H]3S(=O)(=O)N(C)C(=N)N4)c2)cn1` [Example 6, N-(4-fluoro-3-((4aR,7aR)-3-imino-2-methyl-1,1-dioxidohexahydrocyclopenta[e][1,2,4]thiadiazin-4a(2H)-yl)phenyl)-5-methylpyrazine-2-carboxamide], the Ki is 126 nM. In the case of `Cc1ccc(C(=O)Nc2ccc(F)c([C@]34CCC[C@H]3S(=O)(=O)N(C)C(=N)N4)c2)nc1` [Example 7, N-(4-fluoro-3-((4aR,7aR)-3-imino-2-methyl-1,1-dioxidohexahydrocyclopenta[e][1,2,4]thiadiazin-4a(2H)-yl)phenyl)-5-methylpicolinamide], the Ki was 42 nM. As to `CN1C(=N)N[C@@]2(c3cc(NC(=O)c4ncc(Cl)cc4F)ccc3F)CCC[C@H]2S1(=O)=O` [Example 8, 5-chloro-3-fluoro-N-(4-fluoro-3-((4aR,7aR)-3-imino-2-methyl-1,1-dioxidohexahydrocyclopenta[e][1,2,4]thiadiazin-4a(2H)-yl)phenyl)picolinamide], the Ki was 4 nM.

For the compound `CN1C(=N)N[C@@]2(c3cc(NC(=O)c4ncc(F)cc4F)ccc3F)CCC[C@H]2S1(=O)=O` [Example 9, 3,5-difluoro-N-(4-fluoro-3-((4aR,7aR)-3-imino-2-methyl-1,1-dioxidohexahydrocyclopenta[e][1,2,4]thiadiazin-4a(2H)-yl)phenyl)picolinamide], the Ki was 22 nM. Same read-out and setting: next, `Cc1cc(F)cnc1C(=O)Nc1ccc(F)c([C@]23CCC[C@H]2S(=O)(=O)N(C)C(=N)N3)c1` [Example 10, 5-fluoro-N-(4-fluoro-3-((4aR,7aR)-3-imino-2-methyl-1,1-dioxidohexahydrocyclopenta[e][1,2,4]thiadiazin-4a(2H)-yl)phenyl)-3-methylpicolinamide]: 10 nM; `COc1cnc(C(=O)Nc2ccc(F)c([C@]34CCC[C@H]3S(=O)(=O)N(C)C(=N)N4)c2)c(C)c1` [Example 11, N-(4-fluoro-3-((4aR,7aR)-3-imino-2-methyl-1,1-dioxidohexahydrocyclopenta[e][1,2,4]thiadiazin-4a(2H)-yl)phenyl)-5-methoxy-3-methylpicolinamide]: 16 nM. Consider `COc1cnc(C(=O)Nc2ccc(F)c([C@]34CCC[C@H]3S(=O)(=O)N(C)C(=N)N4)c2)c(C)n1` [Example 12, N-(4-fluoro-3-((4aR,7aR)-3-imino-2-methyl-1,1-dioxidohexahydrocyclopenta[e][1,2,4]thiadiazin-4a(2H)-yl)phenyl)-5-methoxy-3-methylpyrazine-2-carboxamide], for which the Ki is 23 nM. The same measure, in the same setting: then `CN1C(=N)N[C@@]2(c3cc(NC(=O)c4cnc(C(F)(F)F)cn4)ccc3F)CCC[C@H]2S1(=O)=O` [Example 14, N-(4-fluoro-3-((4aR,7aR)-3-imino-2-methyl-1,1-dioxidohexahydrocyclopenta[e][1,2,4]thiadiazin-4a(2H)-yl)phenyl)-5-(trifluoromethyl)pyrazine-2-carboxamide], with 25 nM; and `COc1ccc(C(=O)Nc2ccc(F)c([C@]34CCC[C@H]3S(=O)(=O)N(C)C(=N)N4)c2)nc1` [Example 15, N-(4-fluoro-3-((4aR,7aR)-3-imino-2-methyl-1,1-dioxidohexahydrocyclopenta[e][1,2,4]thiadiazin-4a(2H)-yl)phenyl)-5-methoxypicolinamide], with 16 nM.

With `CN1C(=N)N[C@@]2(c3cc(NC(=O)c4cnc(OCC(F)(F)F)cn4)ccc3F)CCC[C@H]2S1(=O)=O` [Example 16, N-(4-fluoro-3-((4aR,7aR)-3-imino-2-methyl-1,1-dioxidohexahydrocyclopenta[e][1,2,4]thiadiazin-4a(2H)-yl)phenyl)-5-(2,2,2-trifluoroethoxy)pyrazine-2-carboxamide], the inhibition constant Ki is 7 nM.

As to `COc1cnc(C(=O)Nc2ccc(F)c([C@]34CCC[C@H]3S(=O)(=O)N(C)C(=N)N4)c2)cn1` [Example 17, N-(4-fluoro-3-((4aR,7aR)-3-imino-2-methyl-1,1-dioxidohexahydrocyclopenta[e][1,2,4]thiadiazin-4a(2H)-yl)phenyl)-5-methoxypyrazine-2-carboxamide], the Ki was 11 nM. Turning to `C#CCOc1ccc(C(=O)Nc2ccc(F)c([C@]34CCC[C@H]3S(=O)(=O)N(C)C(=N)N4)c2)nc1` [Example 18, N-(4-fluoro-3-((4aR,7aR)-3-imino-2-methyl-1,1-dioxidohexahydrocyclopenta[e][1,2,4]thiadiazin-4a(2H)-yl)phenyl)-5-(prop-2-yn-1-yloxy)picolinamide], the inhibition constant (Ki) was 3 nM. `COc1cnc2c(Nc3ccc(F)c([C@]45CCC[C@H]4S(=O)(=O)N(C)C(=N)N5)c3)nccc2c1` [Example 19]: the Ki is 31 nM.

In the case of `COc1cnc2c(Nc3ccc(F)c([C@]45CCC[C@H]4S(=O)(=O)N(C)C(=N)N5)c3)nccc2n1` [Example 20, (4aR,7aR)-4a-(2-fluoro-5-(2-methoxypyrido[3,4-b]pyrazin-5-ylamino)phenyl)-3-imino-2-methyloctahydrocyclopenta[e][1,2,4]thiadiazine 1,1-dioxide], the Ki was 36 nM. As to `COc1cnc2c(Nc3ccc(F)c([C@]45CCC[C@H]4S(=O)(=O)N(C)C(=N)N5)c3)ccnc2c1` [Example 21], the inhibition constant (Ki) is 206 nM. For the compound `CN1C(=N)NC2(c3cc(NC(=O)c4ccc(Cl)cn4)ccc3F)CC2S1(=O)=O` (stereo not shown) [Example 32, 5-chloro-N-(4-fluoro-3-(4-imino-3-methyl-2,2-dioxido-2-thia-3,5-diazabicyclo[4.1.0]heptan-6-yl)phenyl)picolinamide], the Ki is 2520 nM.

On to `CN1C(=N)N[C@@]2(c3cc(Oc4ncccc4F)ccc3F)CCC[C@H]2S1(=O)=O` [Example 34, (4aR,7aR)-4a-(2-fluoro-5-((3-fluoropyridin-2-yl)oxy)phenyl)-3-imino-2-methyloctahydrocyclopenta[e][1,2,4]thiadiazine 1,1-dioxide], for which the inhibition constant (Ki) is 89 nM. Take `COCC(=O)Nc1ccc(F)c(C23CCCC2S(=O)(=O)N(C)C(=N)N3)c1` (stereo not shown) [Example 35, N-(4-fluoro-3-(3-imino-2-methyl-1,1-dioxidohexahydrocyclopenta[e][1,2,4]thiadiazin-4a(2H)-yl)phenyl)-2-methoxy acetamide]: the Ki is 368 nM. With `CN1C(=N)NC2(c3cc(NC(=O)C(F)F)ccc3F)CCCC2S1(=O)=O` (stereo not shown) [Example 36], the Ki was 1080 nM.

Still in this experiment, the particulars now being: read-out: BACE-1 Inh. @ 10 μM.
Take `CN1C(=N)N[C@@]2(c3cc(Br)ccc3F)CCC[C@H]2S1(=O)=O` [Example 33, (4aR,7aR)-4a-(5-bromo-2-fluorophenyl)-3-imino-2-methyloctahydrocyclopenta[e][1,2,4]thiadiazine 1,1-dioxide]: the inhibition at 10 µM was 18%. Turning to `CN1C(=N)NC2(c3ccccc3F)CCCC2S1(=O)=O` (stereo not shown) [Example 37, 4a-(2-fluorophenyl)-3-imino-2-methyloctahydrocyclopenta[e][1,2,4]thiadiazine 1,1-dioxide], the inhibition at 10 µM was 43%.

The next experiment deals with purified human autoBACE-2 (Homo sapiens (Human), UniProt Q9Y5Z0). The experiment is described as follows: BACE-2 Assay (BACE-HTRF assay).
Sequence of purified human autoBACE-2 (Q9Y5Z0 63-473 limits assumed): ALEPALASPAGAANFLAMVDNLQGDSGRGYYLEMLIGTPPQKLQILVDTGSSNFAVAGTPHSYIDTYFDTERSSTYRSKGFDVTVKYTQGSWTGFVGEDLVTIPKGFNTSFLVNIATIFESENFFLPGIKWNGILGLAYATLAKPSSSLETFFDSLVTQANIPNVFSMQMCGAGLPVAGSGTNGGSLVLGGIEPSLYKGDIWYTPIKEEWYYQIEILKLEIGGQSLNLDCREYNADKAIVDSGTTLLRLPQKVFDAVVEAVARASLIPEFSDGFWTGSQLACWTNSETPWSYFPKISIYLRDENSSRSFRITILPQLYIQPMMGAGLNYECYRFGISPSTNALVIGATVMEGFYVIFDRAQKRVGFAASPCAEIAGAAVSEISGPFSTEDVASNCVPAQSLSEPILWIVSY
Settings: not given
As to `CN1C(=N)N[C@@]2(c3cc(Oc4ncccc4F)ccc3F)CCC[C@H]2S1(=O)=O` [Example 34, (4aR,7aR)-4a-(2-fluoro-5-((3-fluoropyridin-2-yl)oxy)phenyl)-3-imino-2-methyloctahydrocyclopenta[e][1,2,4]thiadiazine 1,1-dioxide], the inhibitory constant (Ki) turned out to be 75 nM.

Staying with this experiment, now noted: read-out: BACE-2 Inh. @ 10 μM.
As to `CN1C(=N)N[C@@]2(c3cc(Br)ccc3F)CCC[C@H]2S1(=O)=O` [Example 33, (4aR,7aR)-4a-(5-bromo-2-fluorophenyl)-3-imino-2-methyloctahydrocyclopenta[e][1,2,4]thiadiazine 1,1-dioxide], the inhibition at 10 µM is 18%.
